Molecular target: T1, VEGFR-2 (Homo sapiens, UniProt P35968)
T1 construct: gene KDR; biotin-labeled VEGFR-2 (Prospec)
Assay: in vitro tyrosine kinase ELISA
Assay type: biochemical

T1 sequence (P35968 20-1356): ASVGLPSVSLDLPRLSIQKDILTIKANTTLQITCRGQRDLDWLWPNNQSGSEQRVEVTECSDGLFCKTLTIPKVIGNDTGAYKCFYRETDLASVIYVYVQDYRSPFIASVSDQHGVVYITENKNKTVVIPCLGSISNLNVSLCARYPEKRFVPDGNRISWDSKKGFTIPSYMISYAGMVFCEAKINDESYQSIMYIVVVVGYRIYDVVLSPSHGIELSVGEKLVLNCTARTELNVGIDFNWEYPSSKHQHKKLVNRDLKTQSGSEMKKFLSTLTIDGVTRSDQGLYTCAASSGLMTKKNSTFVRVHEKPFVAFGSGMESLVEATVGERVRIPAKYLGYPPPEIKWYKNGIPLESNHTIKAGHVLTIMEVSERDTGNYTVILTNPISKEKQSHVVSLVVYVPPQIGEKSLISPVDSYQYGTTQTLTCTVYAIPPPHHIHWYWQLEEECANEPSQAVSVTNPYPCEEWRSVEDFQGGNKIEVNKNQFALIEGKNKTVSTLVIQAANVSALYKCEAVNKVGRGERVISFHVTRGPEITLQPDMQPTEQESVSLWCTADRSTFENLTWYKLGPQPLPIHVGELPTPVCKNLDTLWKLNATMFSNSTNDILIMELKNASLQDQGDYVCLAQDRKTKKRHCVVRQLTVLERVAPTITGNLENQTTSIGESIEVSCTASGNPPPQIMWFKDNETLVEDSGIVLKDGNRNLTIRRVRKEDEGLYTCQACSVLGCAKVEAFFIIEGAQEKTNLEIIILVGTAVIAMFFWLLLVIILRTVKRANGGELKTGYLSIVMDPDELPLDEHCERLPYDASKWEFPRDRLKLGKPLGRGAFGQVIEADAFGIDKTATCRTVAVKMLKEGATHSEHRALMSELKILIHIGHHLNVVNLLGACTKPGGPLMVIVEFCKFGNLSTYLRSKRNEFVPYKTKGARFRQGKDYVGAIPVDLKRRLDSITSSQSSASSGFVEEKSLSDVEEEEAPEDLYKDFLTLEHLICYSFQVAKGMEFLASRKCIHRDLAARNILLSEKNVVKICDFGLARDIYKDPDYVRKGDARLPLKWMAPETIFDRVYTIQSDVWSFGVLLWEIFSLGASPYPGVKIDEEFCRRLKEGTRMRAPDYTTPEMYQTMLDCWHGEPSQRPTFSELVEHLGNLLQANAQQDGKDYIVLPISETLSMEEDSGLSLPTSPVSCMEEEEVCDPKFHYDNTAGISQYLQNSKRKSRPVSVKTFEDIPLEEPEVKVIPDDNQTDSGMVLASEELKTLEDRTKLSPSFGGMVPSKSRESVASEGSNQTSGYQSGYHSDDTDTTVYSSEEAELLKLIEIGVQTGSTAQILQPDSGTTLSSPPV

O=C(/C=C/c1ccc(O)cc1)c1ccc(O)cc1O [ISL, Isoliquiritigenin]
IC50: ~100 nM

From article PMC3702614, “Dietary Compound Isoliquiritigenin Inhibits Breast Cancer Neoangiogenesis via VEGF/VEGFR-2 Signaling Pathway” (PLoS ONE, 2013)
